Assay results published in patent EP1561465A2, “Methods of use of fluoroquinolone compounds against bacteria” (LG Life Sciences, Ltd., priority 1999, dated 2001).
Values after ≈ are worked out from the molar mass of the structure shown. Where two headings read alike, the source gives them in different places.

Legend:
Type in all cases: cell-based
P. mirabilis = assay: Urinary bactericidal titers (UBT) and AUBTC of volunteers' urine; conditions: P. mirabilis (16) Laboratory No. 414; urine after gemifloxacin 320 mg or ofloxacin 400 mg
[1] = system: Staphylococcus epidermidis; assay: MIC by NCCLS broth microdilution, 1100 Japanese clinical isolates 1997-1998; conditions: for MIC50 / MIC90: Staphylococcus epidermidis
Staphylococcus aureus = assay: microbe, parasite or virus in culture
Acinetobacter spp. = assay: MIC by agar dilution (NCCLS), 322 nosocomial Gram negative isolates, Athens 1998; conditions: n = 38 strains
Streptococcus pneumoniae = assay: MIC by broth microdilution (NCCLS), dried MicroScan panels, clinical isolates 1998-1999; conditions: for MIC90: Streptococcus pneumoniae
[2] = system: Gram positive anaerobic and facultative anaerobic pathogens; assay: microbe, parasite or virus in culture
[3] = Staphylococcus epidermidis oxacillin resistant (n=43)
[4] = Staphylococcus epidermidis oxacillin susceptible (n=35)
[5] = Streptococcus pneumoniae (302 isolates)

SMILES: CO/N=C1\CN(c2nc3c(cc2F)c(=O)c(C(=O)O)cn3C2CC2)CC1CN (racemic) [Gemifloxacin, (R,S)-7-(3-aminomethyl-4-methoxyiminopyrrolidin-1-yl)-1-cyclopropyl-6-fluoro-4-oxo-1,4-dihydro-1,8-naphthyridine-3-carboxylic acid]
- AUBTC (range) (P. mirabilis): 261 (120-510)
- MIC Range [1, 3]: 0.032 to 4 µg/mL
- MIC Range [1, 4]: ≤0.008 to 2 µg/mL
- MIC50 [1, 3]: 0.5 µg/mL (≈ 1.28 µM)
- MIC90 [1, 3]: 2 µg/mL (≈ 5.14 µM)
- MIC50 [1, 4]: 0.032 µg/mL (≈ 0.0822 µM)
- MIC90 [1, 4]: 0.5 µg/mL (≈ 1.28 µM)
- MIC Range (Staphylococcus aureus; Methicillin-resistant (38)): 0.031 to 32 µg/mL
- MIC Range (Staphylococcus aureus; Methicillin-susceptible (9)): 0.031 to 0.25 µg/mL
- increase of MIC (Staphylococcus aureus; S. aureus KU2240 with a single mutation in NorA, DNA gyrase or topoisomerase IV): 2-4 fold
- MIC90 (Staphylococcus aureus; Staphylococcus aureus, Methicillin-susceptible (9), read-out: MIC90): 0.25 µg/mL (≈ 0.642 µM)
- MIC (Staphylococcus aureus; Staphylococcus aureus, S. aureus KU2240, mutant type Wild (wild strain)): 0.031 µg/mL (≈ 0.0796 µM)
- MIC (Staphylococcus aureus; Staphylococcus aureus, S. aureus KU2240, read-out: MIC): 0.031 µg/mL (≈ 0.0796 µM)
- MIC (Staphylococcus aureus; Staphylococcus aureus, S. aureus KU2241, mutant type NorA (efflux-mediated quinolone resistant)): 0.063 µg/mL (≈ 0.162 µM)
- MIC (Staphylococcus aureus; Staphylococcus aureus, S. aureus KU2242, mutant type T (DNA topoisomerase IV)): 0.063 µg/mL (≈ 0.162 µM)
- MIC (Staphylococcus aureus; Staphylococcus aureus, S. aureus KU2244, mutant type G (DNA gyrase)): 0.125 µg/mL (≈ 0.321 µM)
- MIC (Staphylococcus aureus; Staphylococcus aureus, S. aureus KU2246, mutant type T (DNA topoisomerase IV)): 0.125 µg/mL (≈ 0.321 µM)
- MIC50 (Acinetobacter spp.; Acinetobacter): 2 µg/mL (≈ 5.14 µM)
- MIC90 (Acinetobacter spp.; Acinetobacter): 32 µg/mL (≈ 82.2 µM)
- MIC Range (Acinetobacter spp.): 0.06 to 32 µg/mL
- more active than grepafloxacin (Streptococcus pneumoniae; S. pneumoniae): two-fold
- more active than levofloxacin (Streptococcus pneumoniae; S. pneumoniae): 16 fold
- more active than trovafloxacin (Streptococcus pneumoniae; S. pneumoniae): four-fold
- MIC50 (Streptococcus pneumoniae; [5]): 0.03 µg/mL (≈ 0.077 µM)
- MIC Range (Streptococcus pneumoniae; [5]): ≤0.0015 to 0.12 µg/mL
- MIC90 (Streptococcus pneumoniae; Erythromycin-resistant (86)): 0.03 µg/mL (≈ 0.077 µM)
- MIC90 (Streptococcus pneumoniae; Erythromycin-sensitive (216)): 0.06 µg/mL (≈ 0.154 µM)
- MIC90 (Streptococcus pneumoniae; Penicillin-intermediate (124)): 0.03 µg/mL (≈ 0.077 µM)
- MIC90 (Streptococcus pneumoniae; Penicillin-resistant (80)): 0.06 µg/mL (≈ 0.154 µM)
- MIC90 (Streptococcus pneumoniae; Penicillin-sensitive (98)): 0.06 µg/mL (≈ 0.154 µM)
- MIC90 (Streptococcus pneumoniae; [5]): 0.06 µg/mL (≈ 0.154 µM)
- MIC ([2]; Bifidobacterium adolescentis, ATCC15703): 0.25 µg/mL (≈ 0.642 µM)
- MIC ([2]; Bifidobacterium bifidum, JCM1255): 2 µg/mL (≈ 5.14 µM)
- MIC ([2]; Bifidobacterium breve, ATCC15700): 1 µg/mL (≈ 2.57 µM)
- MIC ([2]; Bifidobacterium longum, ATCC15707): 1 µg/mL (≈ 2.57 µM)
- MIC ([2]; Bifidobacterium pseudolongum, ATCC25526): 1 µg/mL (≈ 2.57 µM)
- MIC ([2]; Clostridioides difficile): 2 µg/mL (≈ 5.14 µM)
- MIC ([2]; Clostridium perfringens, ATCC13124): 0.06 µg/mL (≈ 0.154 µM)
- MIC ([2]; Clostridium septicum, ATCC12464): 0.06 µg/mL (≈ 0.154 µM)
- MIC ([2]; Cutibacterium acnes, ATCC11828): 0.25 µg/mL (≈ 0.642 µM)
- MIC ([2]; Eggerthella lenta, ATCC25559): 0.25 µg/mL (≈ 0.642 µM)
- MIC ([2]; Finegoldia magna, ATCC29328): ≤ 0.03 µg/mL
- MIC ([2]; Gemella morbillorum, ATCC27824): 0.25 µg/mL (≈ 0.642 µM)
- MIC ([2]; Lacticaseibacillus casei, JCM1134): ≤ 0.03 µg/mL
- MIC ([2]; Lactiplantibacillus plantarum, JCM1149): 2 µg/mL (≈ 5.14 µM)
- MIC ([2]; Lactobacillus acidophilus, JCM1132): 0.5 µg/mL (≈ 1.28 µM)
- MIC ([2]; Levilactobacillus brevis, JCM1059): 0.5 µg/mL (≈ 1.28 µM)
- MIC ([2]; Ligilactobacillus salivarius, JCM1231): 0.06 µg/mL (≈ 0.154 µM)
- MIC ([2]; Limosilactobacillus reuteri, JCM1112): 0.25 µg/mL (≈ 0.642 µM)
- MIC ([2]; Limosilactobacillus reuteri, JCM1173): 0.25 µg/mL (≈ 0.642 µM)
- MIC ([2]; Paraclostridium sordellii, ATCC9714): 0.5 µg/mL (≈ 1.28 µM)
- MIC ([2]; Parvimonas micra): 0.125 µg/mL (≈ 0.321 µM)
- MIC ([2]; Peptoniphilus asaccharolyticus): 0.125 µg/mL (≈ 0.321 µM)
